Reference: patent publication US9770026B2, “Substituted pyrimidine compound and uses thereof” (Shenyang Sinochem Agrochemicals R&D Co., Ltd., priority 2012, dated 2017)

What was measured:
cucumber downy mildew = test: protectant activity in vivo against cucumber downy mildew; settings: Cucumis sativus, 168 h; for pest or weed control at 3.125 µg/mL: read-out: control effect against cucumber downy mildew (%), 3.125 mg/L; for pest or weed control at 3.125 µg/mL / pest or weed control at 6.25 µg/mL / pest or weed control at 12.5 µg/mL / pest or weed control at 25 µg/mL / pest or weed control at 50 µg/mL / pest or weed control at 100 µg/mL / pest or weed control at 400 µg/mL: protectant activity; for pest or weed control at 6.25 µg/mL: read-out: control effect against cucumber downy mildew (%), 6.25 mg/L; for pest or weed control at 12.5 µg/mL: read-out: control effect against cucumber downy mildew (%), 12.5 mg/L; for pest or weed control at 25 µg/mL: read-out: control effect against cucumber downy mildew (%), 25 mg/L; for pest or weed control at 50 µg/mL: read-out: control effect against cucumber downy mildew (%), 50 mg/L; for pest or weed control at 100 µg/mL: read-out: control effect against cucumber downy mildew (%), 100 mg/L; for pest or weed control at 400 µg/mL: read-out: control effect against cucumber downy mildew (%), 400 mg/L; for pest or weed control at 25 ppm: read-out: protectant activity against cucumber downy mildew in vivo, 25 ppm; for pest or weed control at 50 ppm: read-out: protectant activity against cucumber downy mildew in vivo, 50 ppm; for pest or weed control at 100 ppm: read-out: protectant activity against cucumber downy mildew in vivo, 100 ppm; for pest or weed control at 400 ppm: read-out: protectant activity against cucumber downy mildew in vivo, 400 ppm
rice blast = test: microbe, parasite or virus in culture; format: cell-based; settings: Pyricularia oryzae; for inhibition at 25 ppm: read-out: inhibition rate against rice blast, 25 ppm, in vitro
armyworm = test: bioactivity test against armyworm, airbrush spray; format: in vivo; settings: 72 h
Diamond back moth = test: insecticidal activity against diamond back moth, airbrush spray; format: in vivo; settings: 72 h; for pest or weed control at 10 µg/mL: 10 mg/L; for pest or weed control at 100 µg/mL: 100 mg/L; for pest or weed control at 600 µg/mL: 600 mg/L; for pest or weed control at 100 ppm / pest or weed control at 600 ppm: mortality after 72 hrs, read-out: control (test results against diamond back moth)
Summary of the method: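 Airbrush leaf-disc spray test: both faces of 2 cm cabbage discs received 0.5 ml of test solution at 0.7 kg/cm^2. Solutions were made in acetone:methanol (1:1) and brought to concentration with 0.1% Tween 80 in water. Ten second-instar larvae per disc, triplicates, were held at 25° C and 60˜70% R.H., with mortality recorded at 72 hrs.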

[1] = system: Green peach aphids (Myzus Persicae Sulzer); test: bioactivity test against green peach aphid, airbrush foliar spray; format: in vivo; settings: for pest or weed control at 1.25 µg/mL: 1.25 mg/L; for pest or weed control at 1.25 µg/mL / pest or weed control at 2.5 µg/mL / pest or weed control at 5 µg/mL / pest or weed control at 10 µg/mL / pest or weed control at 100 µg/mL / pest or weed control at 600 µg/mL: contrastive test, read-out: Insecticidal activity against peach aphid (%); for pest or weed control at 2.5 µg/mL: 2.5 mg/L; for pest or weed control at 5 µg/mL: 5 mg/L; for pest or weed control at 10 µg/mL: 10 mg/L; for pest or weed control at 100 µg/mL: 100 mg/L; for pest or weed control at 600 µg/mL: 600 mg/L
Summary of the method: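 Death rate was scored at 48 hrs, held at 25±1 C and 60±5% RH, following airbrush foliar spray (0.5 mL, 10 psi) onto cabbage leaf discs bearing about 15-30 aphids. Test solutions: compound dissolved in 1:1 acetone:methanol, brought to concentration with 0.1% tween 80 water.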

carmine spider mite = test: bioactivity test against carmine spider mite, airbrush spray; format: in vivo; settings: for pest or weed control at 100 µg/mL: 100 mg/L; for pest or weed control at 600 µg/mL: 600 mg/L
Summary of the method: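 Broadbean seedlings infested with adult mites were sprayed with compound (acetone/methanol stock diluted in 0.1% Tween 80 water) by airbrush at 0.7 kg/cm^2, 0.5 ml. Three replicates were run. Mortality was scored after 72 hrs.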

wheat powdery mildew = test: protectant activity in vivo against wheat powdery mildew; settings: Triticum aestivum, 168 h; for pest or weed control at 400 ppm: read-out: protectant activity against wheat powdery mildew in vivo, 400 ppm; for pest or weed control at 100 ppm: read-out: protectant activity against wheat powdery mildew in vivo, 100 ppm
corn rust = test: protectant activity in vivo against corn rust; settings: Zea mays, 168 h; for pest or weed control at 100 ppm: read-out: protectant activity against corn rust in vivo, 100 ppm; for pest or weed control at 25 ppm: read-out: protectant activity against corn rust in vivo, 25 ppm; for pest or weed control at 400 ppm: read-out: protectant activity against corn rust in vivo, 400 ppm
cucumber gray mold = test: fungicidal activity in vitro (inhibition rate) against cucumber gray mold; format: cell-based; settings: 25 ppm, in vitro; read-out: inhibition rate against cucumber gray mold
[2] = Myzus persicae, foliar, 48 h, death rate after 48 hrs
[3] = Tetranychus cinnabarinus, 72 h, mortality after 72 hrs
[4] = Tetranychus cinnabarinus, 72 h, contrastive test, read-out: Insecticidal activity against carmine spider mite (% )

## CCc1ncnc(NCCc2ccc(Oc3ccc(Cl)nn3)cc2)c1Cl [Compound I-3309]
Cucumber downy mildew
  pest or weed control at 3.125 µg/mL: 50%
  pest or weed control at 6.25 µg/mL: 60%
  pest or weed control at 12.5 µg/mL: 70%
  pest or weed control at 25 µg/mL: 90%
  pest or weed control at 50 µg/mL: 90%
  pest or weed control at 100 µg/mL: 90%
  pest or weed control at 400 µg/mL: 100%
  pest or weed control at 25 ppm: 80 to 99%
  pest or weed control at 50 ppm: 80 to 99%
  pest or weed control at 100 ppm: 80 to 99%
  pest or weed control at 400 ppm: 100%
Rice blast
  inhibition at 25 ppm: 80 to 99%
armyworm; 10 mg/L, read-out: Insecticidal activity against armyworm (%)
  pest or weed control at 10 µg/mL: 60%
armyworm; 100 mg/L, read-out: Insecticidal activity against armyworm (%)
  pest or weed control at 100 µg/mL: 100%
armyworm; 600 mg/L, read-out: Insecticidal activity against armyworm (%)
  pest or weed control at 600 µg/mL: 100%
armyworm; 100 ppm, mortality after 72 h
  pest or weed control at 100 ppm: 100%
armyworm; mortality after 72 h
  pest or weed control at 600 ppm: 100%
Diamond back moth
  pest or weed control at 10 µg/mL: 60%
  pest or weed control at 100 µg/mL: 100%
  pest or weed control at 600 µg/mL: 100%
  pest or weed control at 100 ppm: 100%
  pest or weed control at 600 ppm: 100%
[1]; Myzus persicae, foliar, 48 h
  pest or weed control at 1.25 µg/mL: 48%
  pest or weed control at 2.5 µg/mL: 96%
  pest or weed control at 5 µg/mL: 100%
  pest or weed control at 10 µg/mL: 100%
  pest or weed control at 100 µg/mL: 100%
  pest or weed control at 600 µg/mL: 100%
[1]; [2]
  pest or weed control at 10 ppm: 100%
  pest or weed control at 100 ppm: 100%
  pest or weed control at 600 ppm: 100%
Carmine spider mite; [3]
  pest or weed control at 100 ppm: 80 to 99%
  pest or weed control at 600 ppm: 80 to 99%
Wheat powdery mildew
  pest or weed control at 400 ppm: 100%
Corn rust
  pest or weed control at 100 ppm: 80 to 99%
Cucumber gray mold
  inhibition at 25 ppm: 80 to 99%

## CCc1ncnc(NCCc2ccc(Oc3ccc(C(F)(F)F)cc3)cc2)c1Cl [II-347]
Cucumber downy mildew
  pest or weed control at 100 ppm: 80 to 99%
  pest or weed control at 400 ppm: 100%
Rice blast
  inhibition at 25 ppm: 80 to 99%
armyworm; mortality after 72 h
  pest or weed control at 600 ppm: 100%
Diamond back moth
  pest or weed control at 10 µg/mL: 65%
  pest or weed control at 100 µg/mL: 70%
  pest or weed control at 600 µg/mL: 100%
  pest or weed control at 600 ppm: 100%
[1]; 2.5 ppm, death rate after 48 hrs
  control (test results against green peach aphid): 100%
[1]; Myzus persicae, foliar, 48 h
  pest or weed control at 1.25 µg/mL: 81%
  pest or weed control at 2.5 µg/mL: 100%
  pest or weed control at 5 µg/mL: 100%
  pest or weed control at 10 µg/mL: 100%
  pest or weed control at 100 µg/mL: 100%
  pest or weed control at 600 µg/mL: 100%
[1]; Myzus persicae, foliar, 48 h, 5 ppm, death rate after 48 hrs
  pest or weed control at 5 ppm: 100%
[1]; [2]
  pest or weed control at 10 ppm: 100%
  pest or weed control at 100 ppm: 100%
  pest or weed control at 600 ppm: 100%
Carmine spider mite; 2.5 mg/L
  Insecticidal activity against carmine spider mite (% ): 75%
Carmine spider mite; 5 mg/L
  Insecticidal activity against carmine spider mite (% ): 90%
Carmine spider mite; Tetranychus cinnabarinus, 72 h, 10 mg/L, contrastive test, read-out: Insecticidal activity against carmine spider mite (% )
  pest or weed control at 10 µg/mL: 100%
Carmine spider mite; [4]
  pest or weed control at 100 µg/mL: 100%
  pest or weed control at 600 µg/mL: 100%
Carmine spider mite; Tetranychus cinnabarinus, 72 h, 10 ppm, mortality after 72 hrs
  pest or weed control at 10 ppm: 100%
Carmine spider mite; [3]
  pest or weed control at 100 ppm: 100%
  pest or weed control at 600 ppm: 100%
Wheat powdery mildew; read-out: protectant activity against wheat powdery mildew in vivo, 25 ppm
  pest or weed control at 25 ppm: 100%
Wheat powdery mildew
  pest or weed control at 100 ppm: 100%
  pest or weed control at 400 ppm: 100%
Corn rust; read-out: protectant activity against corn rust in vivo, 6.25 ppm
  pest or weed control at 6.25 ppm: 80 to 99%
Corn rust
  pest or weed control at 25 ppm: 80 to 99%
  pest or weed control at 100 ppm: 100%
  pest or weed control at 400 ppm: 100%
Cucumber gray mold
  inhibition at 25 ppm: 80 to 99%

## Cc1ncnc(NCCc2ccc(Oc3ccc(Cl)cc3)nc2)c1Cl [III-7]
Cucumber downy mildew
  pest or weed control at 3.125 µg/mL: 100%
  pest or weed control at 6.25 µg/mL: 100%
  pest or weed control at 12.5 µg/mL: 100%
  pest or weed control at 25 µg/mL: 100%
  pest or weed control at 50 µg/mL: 100%
  pest or weed control at 100 µg/mL: 100%
  pest or weed control at 400 µg/mL: 100%
  pest or weed control at 25 ppm: 100%
  pest or weed control at 50 ppm: 100%
  pest or weed control at 100 ppm: 100%
  pest or weed control at 400 ppm: 100%
Cucumber downy mildew; read-out: protectant activity against cucumber downy mildew in vivo, 6.25 ppm
  pest or weed control at 6.25 ppm: 100%
Cucumber downy mildew; read-out: protectant activity against cucumber downy mildew in vivo, 12.5 ppm
  pest or weed control at 12.5 ppm: 100%
Rice blast; read-out: inhibition rate against rice blast, 0.1 ppm, in vitro
  inhibition at 0.1 ppm: 100%
Rice blast; read-out: inhibition rate against rice blast, 0.3 ppm, in vitro
  inhibition at 0.3 ppm: 100%
Rice blast; read-out: inhibition rate against rice blast, 0.9 ppm, in vitro
  inhibition at 0.9 ppm: 100%
Rice blast; read-out: inhibition rate against rice blast, 2.8 ppm, in vitro
  inhibition at 2.8 ppm: 100%
Rice blast; read-out: inhibition rate against rice blast, 8.3 ppm, in vitro
  inhibition at 8.3 ppm: 100%
Rice blast
  inhibition at 25 ppm: 100%
armyworm; mortality after 72 h
  pest or weed control at 600 ppm: 100%
Diamond back moth
  pest or weed control at 100 ppm: 80 to 99%
  pest or weed control at 600 ppm: 100%
[1]; Myzus persicae, foliar, 48 h
  pest or weed control at 5 µg/mL: 88%
  pest or weed control at 10 µg/mL: 90%
  pest or weed control at 100 µg/mL: 100%
  pest or weed control at 600 µg/mL: 100%
[1]; [2]
  pest or weed control at 10 ppm: 80 to 99%
  pest or weed control at 100 ppm: 100%
  pest or weed control at 600 ppm: 100%
Carmine spider mite; [4]
  pest or weed control at 100 µg/mL: 100%
  pest or weed control at 600 µg/mL: 100%
Carmine spider mite; [3]
  pest or weed control at 100 ppm: 100%
  pest or weed control at 600 ppm: 100%
Wheat powdery mildew
  pest or weed control at 100 ppm: 80 to 99%
  pest or weed control at 400 ppm: 100%
Corn rust; read-out: control effect against corn rust (%), 25 mg/L, protectant activity
  pest or weed control at 25 µg/mL: 100%
Corn rust; read-out: control effect against corn rust (%), 100 mg/L, protectant activity
  pest or weed control at 100 µg/mL: 100%
Corn rust; read-out: control effect against corn rust (%), 400 mg/L, protectant activity
  pest or weed control at 400 µg/mL: 100%
Corn rust
  pest or weed control at 25 ppm: 100%
  pest or weed control at 100 ppm: 100%
  pest or weed control at 400 ppm: 100%
Cucumber gray mold
  inhibition at 25 ppm: 80 to 99%
